Experimental data taken from patent publication US7642367B2, “Diamino-functional chalcones” (Lica Pharmaceuticals A/S, priority 2002, dated 2010).
In brackets after ≈: the same amount, converted by molar mass.

Tests used:
[1] = system: dihydroorotate dehydrogenase (DHODH); assay: DHODH assay; type: biochemical; conditions: test concentration not given
Description: 100 μl chalcone or 0.1 M Tris-HCl pH 8.0 is added to a well in a 96-wells microtiter plate. Then 50 μl enzyme dilution is added. The microtiter plate is placed in the Powerwavex340 and the enzymatic reactions starts when adding 100 μl assay mixture. The reaction are measured every 20 sec. for 10 min. The samples with chalcones are compared with the samples with 0.1 M Tris-HCl pH 8.0 and the percent inhibition is calculated.
Enzyme dilution: The solution of recombinant purified enzyme is dissolved in 0.1 M Tris-HCl pH 8 to give an initial velocity of 0.04-0.05 ΔA/min.
2,6-dichlorophenolindophenol (DCIP)-stock solution: 40 mg DCIP and 10 ml 99% Ethanol are mixed for 10 min at RT. Then 100 μl 1.0 M Tris-HCl pH 8 and milliQ H20 are added to a final volume of 100 ml. The A600 of the DCIP-stock solution are measured in a microtiter plate on the Powerwavex340 (Bio-Tek instruments, Inc.)
[…]-stock solution: 25 mM dihydroorotate stock-solution is prepared by first dissolving in the same amount of mol NaOH and then miliQ H20 is added to the final volume.
Assay mix (10 ml solution): 600 μl of DHODH-stock solution and X ml (depending on the A600 value of stock-solution) DCIP to a final A600=2.5 are mixed. Then 0.1 M Tris-HCl pH 8.0 are added to a final volume of 10 ml.
Preparation of compound solution: A 10 mM stock-solution of compound (e.g. a chalcone derivative) is made in dimethylsulfoxid (DMSO). The compound is then diluted in 0.1 M Tris-HCl pH 8 to the test concentrations. The final DMSO concentration in the sample is 10%

S. aureus ATCC29213 = assay: Killing curve (time-kill) / broth macrodilution MIC; type: cell-based, Staphylococcus aureus; conditions: for bactericidal or bacteriostatic (time-kill curve): S. aureus ATCC29213, concentrations above the MIC
[2] = system: Plasmodium falciparum 3D7; assay: Plasmodium falciparum assay (3H-phenylalanine labelling); type: cell-based; conditions: for IC50: Plasmodium falciparum 3D7 (Table 2), read-out: IC50
[3] = system: Streptococcus pneumoniae #998 (clinical isolate); assay: MIC determination in broth microdilution assay; conditions: F: Streptococcus pneumoniae #998; NA: no activity
[4] = system: Staphylococcus aureus ATCC33591 (resistant to methicillin); assay: MIC determination in broth microdilution assay; conditions: B: Staphylococcus aureus ATCC33591 (resistant to methicillin); NA: no activity
[5] = system: Staphylococcus aureus ATCC29213; assay: MIC determination in broth microdilution assay; conditions: A: Staphylococcus aureus ATCC29213; NA: no activity
[6] = system: Enterococcus faecalis ATCC29212; assay: MIC determination in broth microdilution assay; conditions: D: Enterococcus faecalis ATCC29212; NA: no activity
[7] = system: Enterococcus faecium #17501 (vancomycin-resistant clinical isolate); assay: MIC determination in broth microdilution assay; conditions: E: Enterococcus faecium #17501 (vancomycin-resistant); NA: no activity
[8] = system: Staphylococcus intermedius #2357 (clinical isolate); assay: MIC determination in broth microdilution assay; conditions: C: Staphylococcus intermedius #2357; NA: no activity
Eschericia coli ESS = assay: MIC determination in broth microdilution assay; conditions: for MIC: H: Eschericia coli ESS, NA: no activity
[9] = system: Eschericia coli ATCC25922; assay: MIC determination in broth microdilution assay; conditions: for MIC: G: Eschericia coli ATCC25922, NA: no activity
L. major promastigotes = assay: Leishmania promastigote assay (3H-thymidine); conditions: L. major
non-fastidious bacteria = assay: Activity against non-fastidious bacteria (panel); conditions: for activity against Gram-positive non-fastidious bacteria: pathogenic Gram-positive bacteria
[10] = Determination of metabolic stability (liver microsomes); type: in vitro ADME, Wistar rat; conditions: for Metabolic turn-over in vitro: rat liver microsomes, 20 μM, 15 min at 37° C.
Description: incubations were performed with Wistar rat liver microsomes (0.25 mg/ml) in 2% sodium bicarbonate solution. NADP (0.13 mg/ml), glucose-6-phosphate (0.63 mg/ml) and glucose-6-phosophate dehydrogenase (0.38 units/ml) were used as NADPH generation system and UDPGA (0.48 mg/ml) was added to include the phase II reaction, glucuronic acid conjugation, in the assay. After 5 minutes of pre-incubation the reaction was started by addition of the test article to give a final concentration of 20 μM. Samples were incubated for 15 min at 37° C. and the reactions were terminated by addition of equal volumes of acetonitrile. Blank incubations were performed at the same concentration but without addition of microsomes. Both blank and microsome-containing samples were made in replicats of three. Prior to analysis samples were centrifuged for 10 min. at 3500 rpm, HPLC system:
Initial conditions were 40% mobile phase A (acetonitrile) and 60% mobile phase B (10 mM ammonium acetate pH 9.5). During the first 20 minutes, the mobile phase was changed via a linear gradient to 90% A and 10% B. This was followed by a 5 minutes linear gradient to initial conditions, which were maintained for 5 min. The flow rate was 0.20 ml/min and injection volume 10 μl.

[11] = system: Bacteroides fragilis, Clostridium perfringens, Clostridium difficele; type: cell-based; conditions: single concentration of compound (100 μM)

Compound: CN(C)CCN(C)c1cccc(C(=O)/C=C/c2cc(F)ccc2F)c1 [B017, (E)-3-(2,5-Difluoro-phenyl)-1-{3-[(2-dimethylamino-ethyl)-methyl-amino]-phenyl}-propenone]
- Inhibition of DHODH [1]: 23%

Compound: COc1ccc(C(=O)/C=C/c2cc(-c3ccccc3OC)ccc2N2CCCN(C)CC2)c(F)c1 [B143, (E)-1-(2-Fluoro-4-methoxy-phenyl)-3-[2′-methoxy-4-(4-methyl-[1,4]diazepan-1-yl)-biphenyl-3-yl]-propenone]
- MIC (time-kill curve figure) (S. aureus ATCC29213; S. aureus ATCC29213): 9.4 µM (≈ 4.46 µg/mL)
- bactericidal or bacteriostatic (time-kill curve) (S. aureus ATCC29213): bactericidal

Compound: CN(C)CCN(C)c1cccc(C(=O)/C=C/c2ccc(Br)cc2F)c1 [B018, (E)-3-(4-Bromo-2-fluoro-phenyl)-1-{3-[(2-dimethylamino-ethyl)-methyl-amino]-phenyl}-propenone]
- Inhibition of DHODH [1]: 22%

Compound: Cc1ccccc1-c1ccc(N2CCN(C)CC2)c(/C=C/C(=O)c2cccc(NC(=O)CN(C)C)c2)c1 [B211, 2-Dimethylamino-N-(3-{3-[2′-methyl-4-(4-methyl-piperazin-1-yl)-biphenyl-3-yl]-(E)-acryloyl}-phenyl)-acetamide]
- IC50 [2]: 700 nM

Compound: Cc1cc(C)cc(-c2ccc(N3CCNCC3)c(/C=C/C(=O)c3cccc(NCCN(C)C)c3)c2)c1 [B116, (E)-1-[3-(2-Dimethylamino-ethylamino)-phenyl]-3-(3′,5′-dimethyl-4-piperazin-1-yl-biphenyl-3-yl)-propenone]
- MIC [3]: 4.7 µM (≈ 2.27 µg/mL)
- MIC [4]: 4.7 µM (≈ 2.27 µg/mL)
- MIC [5]: 2.4 µM (≈ 1.16 µg/mL)
- MIC [6]: 4.7 µM (≈ 2.27 µg/mL)
- MIC [7]: 4.7 µM (≈ 2.27 µg/mL)
- MIC [8]: 4.7 µM (≈ 2.27 µg/mL)
- activity against ESS strain of E. coli (Eschericia coli ESS): high activity
- MIC (Eschericia coli ESS): 4.7 µM (≈ 2.27 µg/mL)
- activity against E. coli ATCC25922 [9]: high activity
- MIC [9]: 4.7 µM (≈ 2.27 µg/mL)

Compound: Cc1ccccc1-c1ccc(N2CCN(C)CC2)c(/C=C/C(=O)c2ccc(O)c(CN(C)C)c2)c1 [B208, (E)-1-(3-Dimethylaminomethyl-4-hydroxy-phenyl)-3-[2′-methyl-4-(4-methyl-piperazin-1-yl)-biphenyl-3-yl]-propenone]
- IC50 (L. major promastigotes): 1100 nM
- IC50 [2]: 400 nM

Compound: COc1ccc(C(=O)/C=C/c2ccccc2)cc1 [4′MC, 4′methoxy chalcone, reference compound]
- Inhibition of DHODH [1]: 7%
- activity against Gram-positive non-fastidious bacteria (non-fastidious bacteria): no antibacterial effect at all

Compound: C=CC(C)(C)c1cc(/C=C/C(=O)c2ccc(O)cc2)c(OC)cc1O [LicA, Licochalcone A]
- MIC [3]: 75.0 µM (≈ 25.4 µg/mL)
- turn-over in vitro [10]: 100%
- Metabolic turn-over in vitro [10]: 100%
- Inhibition of DHODH [1]: 25%
- activity against Gram-positive non-fastidious bacteria (non-fastidious bacteria): moderate bactericidal activity
- activity against Escherichia coli (non-fastidious bacteria; prototype pathogenic Gram-negative bacterium): only modest or no activity
- MIC (Eschericia coli ESS): 300.0 µM (≈ 102 µg/mL)

Compound: Cc1ccccc1-c1ccc(N2CCN(C)CC2)c(/C=C/C(=O)c2ccc(O)cc2)c1 [B209, (E)-1-(4-Hydroxy-phenyl)-3-[2′-methyl-4-(4-methyl-piperazin-1-yl)-biphenyl-3-yl]-propenone]
- IC50 [2]: 300 nM

Compound: CN(C)CCN(C)c1cc(Br)cc(/C=C/C(=O)c2ccccc2CN(C)C)c1 [B118, (E)-3-{3-Bromo-5-[(2-dimethylamino-ethyl)-methyl-amino]-phenyl}-1-(2-dimethylaminomethyl-phenyl)-propenone]
- times more potent than LicA ([2]; Plasmodium falciparum, dose-response curve FIG. 6): 40

Compound: COc1ccc(C(=O)/C=C/c2cc(-c3cc(C)cc(C)c3)ccc2N2CCN(C)CC2)c(CN(C)C)c1 [B102, (E)-1-(2-Dimethylaminomethyl-4-methoxy-phenyl)-3-[3′,5′-dimethyl-4-(4-methyl-piperazin-1-yl)-biphenyl-3-yl]-propenone]
- MIC [3]: 4.7 µM (≈ 2.34 µg/mL)
- MIC [4]: 9.4 µM (≈ 4.68 µg/mL)
- MIC [5]: 4.7 µM (≈ 2.34 µg/mL)
- MIC [6]: 9.4 µM (≈ 4.68 µg/mL)
- MIC [7]: 9.4 µM (≈ 4.68 µg/mL)
- MIC [8]: 18.8 µM (≈ 9.36 µg/mL)
- activity against Gram-positive non-fastidious bacteria (non-fastidious bacteria): increased potency
- MIC (Eschericia coli ESS): 4.7 µM (≈ 2.34 µg/mL)
- MIC [9]: 37.5 µM (≈ 18.7 µg/mL)

Compound: COc1ccc(C(=O)/C=C/c2cc(-c3cc(C)cc(C)c3)ccc2N2CCNCC2)c(CN(C)C)c1 [B117, (E)-1-(2-Dimethylaminomethyl-4-methoxy-phenyl)-3-(3′,5′-dimethyl-4-piperazin-1-yl-biphenyl-3-yl)-propenone]
- MIC [4]: 4.7 µM (≈ 2.27 µg/mL)
- MIC [5]: 4.7 µM (≈ 2.27 µg/mL)
- MIC [6]: 4.7 µM (≈ 2.27 µg/mL)
- MIC [7]: 4.7 µM (≈ 2.27 µg/mL)
- MIC [8]: 9.4 µM (≈ 4.55 µg/mL)
- MIC (Eschericia coli ESS): 4.7 µM (≈ 2.27 µg/mL)
- MIC [9]: 18.8 µM (≈ 9.09 µg/mL)

Compound: COc1ccc(C(=O)/C=C/c2ccccc2N(C)CCN(C)C)c(F)c1 [B058, (E)-3-{2-[(2-Dimethylamino-ethyl)-methyl-amino]-phenyl}-1-(2-fluoro-4-methoxy-phenyl)-propenone]
- Inhibition of DHODH [1]: 17%

Compound: CN(C)CCN(C)c1cccc(C(=O)/C=C/c2ccc(Cl)cc2Cl)c1 [B015, (E)-3-(2,4-Dichloro-phenyl)-1-{3-[(2-dimethylamino-ethyl)-methyl-amino]-phenyl}-propenone]
- Inhibition of DHODH [1]: 25%

Compound: Cc1cc(C)cc(-c2ccc(N3CCN(C)CC3)c(/C=C/C(=O)c3ccccc3N)c2)c1 [B115, (E)-1-(2-Amino-phenyl)-3-[3′,5′-dimethyl-4-(4-methyl-piperazin-1-yl)-biphenyl-3-yl]-propenone]
- MIC [3]: 9.4 µM (≈ 4 µg/mL)
- Metabolic turn-over in vitro [10]: 0%
- MIC [4]: 4.7 µM (≈ 2 µg/mL)
- MIC [5]: 4.7 µM (≈ 2 µg/mL)
- MIC [6]: 4.7 µM (≈ 2 µg/mL)
- MIC [7]: 4.7 µM (≈ 2 µg/mL)
- MIC [8]: 4.7 µM (≈ 2 µg/mL)
- activity against Gram-positive non-fastidious bacteria (non-fastidious bacteria): increased potency
- MIC (Eschericia coli ESS): 9.4 µM (≈ 4 µg/mL)

Compound: CCCCN(CCCC)c1cccc(/C=C/C(=O)c2ccccc2NCCN(C)C)c1 [B041, (E)-3-(3-Dibutylamino-phenyl)-1-[2-(2-dimethylamino-ethylamino)-phenyl]-propenone]
- MIC [3]: 18.8 µM (≈ 7.93 µg/mL)
- activity against anaerobic bacteria [11]: activity against all microorganisms within the test panel
- MIC [4]: 4.7 µM (≈ 1.98 µg/mL)
- MIC [5]: 4.7 µM (≈ 1.98 µg/mL)
- MIC [6]: 9.4 µM (≈ 3.96 µg/mL)
- MIC (time-kill curve figure) (S. aureus ATCC29213; S. aureus ATCC29213): 9.4 µM (≈ 3.96 µg/mL)
- dependence of the bactericidal action (S. aureus ATCC29213; S. aureus ATCC29213): primarily dependent on incubation time
- bactericidal or bacteriostatic (time-kill curve) (S. aureus ATCC29213): bactericidal
- MIC [7]: 9.4 µM (≈ 3.96 µg/mL)
- MIC [8]: 9.4 µM (≈ 3.96 µg/mL)
- MIC (Eschericia coli ESS): 300.0 µM (≈ 126 µg/mL)
